Experimental data from ChEMBL document CHEMBL2331174, “Inhibition of notch pathway signaling: a one compound mission to treat cancer” (ACS Med Chem Lett, 2013).

Columns and labels:
[1] = Inhibition of gamma-secretase mediated cleavage of transfected mouse Notch 1 (1703-2183) harboring N-terminal 23 aminoacid signal peptide sequence in human HEK293deltaE12 cells assessed as nuclear accumulation of Notch 1 intracellular domain (N1ICD) after 24 hrs by fluorescence cellular imaging analysis; format: cell-based
[2] = Inhibition of gamma-secretase mediated cleavage of Notch 1 in human U-87-MG cells assessed as nuclear accumulation of Notch 1 intracellular domain (N1ICD) after 24 hrs by ELISA; format: cell-based, U-87MG ATCC
[3] = Inhibition of gamma-secretase mediated cleavage of Notch 1 in human SW480 cells assessed as nuclear accumulation of Notch 1 intracellular domain (N1ICD) after 24 hrs by ELISA; format: cell-based; conditions: SW480, 24 h
[4] = Inhibition of gamma-secretase mediated cleavage of Notch 1 in human MOLT-3 cells assessed as nuclear accumulation of Notch 1 intracellular domain (N1ICD) after 24 hrs by ELISA; format: cell-based; conditions: MOLT-3, 24 h
[5] = Inhibition of gamma-secretase mediated cleavage of Notch 1 in human MOLT-4 cells assessed as nuclear accumulation of Notch 1 intracellular domain (N1ICD) after 24 hrs by ELISA; format: cell-based; conditions: MOLT-4, 24 h
[6] = Inhibition of gamma-secretase mediated cleavage of Notch 1 in human BxPC3 cells assessed as nuclear accumulation of Notch 1 intracellular domain (N1ICD) after 24 hrs by ELISA; format: cell-based; conditions: BXPC-3, 24 h
[7] = Inhibition of gamma-secretase mediated cleavage of Notch 1 in human K562 cells assessed as nuclear accumulation of Notch 1 intracellular domain (N1ICD) after 24 hrs by ELISA; format: cell-based; conditions: K562, 24 h
[8] = Inhibition of gamma-secretase mediated cleavage of Notch 1 in human MIAPaCa2 cells assessed as nuclear accumulation of Notch 1 intracellular domain (N1ICD) after 24 hrs by ELISA; format: cell-based; conditions: MIA PaCa-2, 24 h
[9] = Inhibition of gamma-secretase mediated cleavage of Notch 1 in human A375 cells assessed as nuclear accumulation of Notch 1 intracellular domain (N1ICD) after 24 hrs by ELISA; format: cell-based; conditions: A-375, 24 h
[10] = Inhibition of gamma-secretase mediated cleavage of Notch 1 in human Jurkat cells assessed as nuclear accumulation of Notch 1 intracellular domain (N1ICD) after 24 hrs by ELISA; format: cell-based
[11] = Inhibition of gamma-secretase mediated cleavage of Notch 1 in human A2780 cells assessed as nuclear accumulation of Notch 1 intracellular domain (N1ICD) after 24 hrs by ELISA; format: cell-based; conditions: A2780, 24 h
[12] = Inhibition of gamma-secretase mediated cleavage of Notch 1 in human CCRF-CEM cells assessed as nuclear accumulation of Notch 1 intracellular domain (N1ICD) after 24 hrs by ELISA; format: cell-based
[13] = Inhibition of gamma-secretase mediated cleavage of Notch 1 in human SUP-T1 cells assessed as nuclear accumulation of Notch 1 intracellular domain (N1ICD) after 24 hrs by ELISA; format: cell-based; conditions: SUP-T1, 24 h
[14] = Inhibition of gamma-secretase mediated cleavage of Notch 1 in human HCT 116 cells assessed as nuclear accumulation of Notch 1 intracellular domain (N1ICD) after 24 hrs by ELISA; format: cell-based; conditions: HCT-116, 24 h
[15] = Inhibition of gamma-secretase mediated cleavage of Notch 1 in human HEL 92.1.7 cells assessed as nuclear accumulation of Notch 1 intracellular domain (N1ICD) after 24 hrs by ELISA; format: cell-based; conditions: HEL 92.1.7, 24 h
[16] = Inhibition of gamma-secretase mediated cleavage of Notch 1 in human DLD1 cells assessed as nuclear accumulation of Notch 1 intracellular domain (N1ICD) after 24 hrs by ELISA; format: cell-based; conditions: DLD-1, 24 h
[17] = Inhibition of gamma-secretase mediated cleavage of Notch 1 in human MDA-MB-231 cells assessed as nuclear accumulation of Notch 1 intracellular domain (N1ICD) after 24 hrs by ELISA; format: cell-based; conditions: MDA-MB-231, 24 h

IC50 [1]: 0.41 nM | IC50 [2]: 0.28 nM | IC50 [3]: 0.1 nM | IC50 [4]: 0.61 nM | IC50 [5]: 0.74 nM | IC50 [6]: 0.39 nM | IC50 [7]: 0.74 nM | IC50 [8]: 0.71 nM | IC50 [9]: 0.48 nM | IC50 [10]: 5.95 nM | IC50 [11]: 1.03 nM | IC50 [12]: 0.76 nM | IC50 [13]: 1.24 nM | IC50 [14]: 0.72 nM | IC50 [15]: 0.23 nM | IC50 [16]: 0.98 nM | IC50 [17]: 0.5 nM
SMILES: C[C@H](NC(=O)CCC(F)(F)F)C(=O)N[C@@H]1C(=O)N(CCO)c2ncccc2-c2ccccc21 [CRENIGACESTAT]
